Results taken from US10508310B2, “Method of predicting a response to an anti-tumor treatment” (SORBONNE UNIVERSITE, priority 2013, dated 2019).

Legend:
Assay type in all cases: in vivo, mice
BC52 breast cancer PDX = assay: Tumor growth rate in BC52 patient-derived xenograft treated by DPT-C9h
Protocol: (§1) Breast-cancer patient xenografts (PDXs) were obtained by direct implant of patient tumor fragments in immunocompromised mice. (Arrouss Et al, PlosOne. 2013. 8, e60816).
(§2) Nine models treated by DPT-C9h (5 mg/kg/d IP, 5 days weekly, 4 to 6 weeks) were selected for the study, i.e. 7 breast cancer PDXs (BC11, BC52, BC143, BC146, BC173, BC227, and BC256), and 2 ovarian cancer PDXs (OV14 and OVM33). Three tumors of both control and treated groups were collected at the end of therapy, except for the BC146 for which 2 control tumors and 3 treated tumors were obtained. For each collected tumor, tumor volume was estimated according to the following formulae: V=a×b2/2, where a and b are the largest and the smallest perpendicular tumor diameters.
(§3) In a second time, a median TGR was defined for the control and treated groups of each PDX model. Finally, a ratio was calculated for each PDX model, as: median TGR of the treated group/median TGR of the corresponding control group. The inventors considered that a model was responder to DPT-C9h if the ratio was ≤0.5 (p<0.05), and resistant if the ratio was ≥0.8. In this, 3 models were considered as responder (BC52, BC173 and OV14), 4 as resistant (BC11, BC146, BC227, and BC256), and 2 remained undefined and were excluded from analyses (BC143 and OVM33) (Table 1).

BC227 breast cancer PDX = assay: Tumor growth rate in BC227 patient-derived xenograft treated by DPT-C9h
Protocol: as §1, §2, §3

OVM33 ovarian cancer PDX = assay: Tumor growth rate in OVM33 patient-derived xenograft treated by DPT-C9h
Protocol: as §2, §3

BC143 breast cancer PDX = assay: Tumor growth rate in BC143 patient-derived xenograft treated by DPT-C9h
Protocol: as §1, §2, §3

BC173 breast cancer PDX = assay: Tumor growth rate in BC173 patient-derived xenograft treated by DPT-C9h
Protocol: as §1, §2, §3

BC146 breast cancer PDX = assay: Tumor growth rate in BC146 patient-derived xenograft treated by DPT-C9h
Protocol: as §1, §2, §3

OV14 ovarian cancer PDX = assay: Tumor growth rate in OV14 patient-derived xenograft treated by DPT-C9h
Protocol: as §2, §3

BC11 breast cancer PDX = assay: Tumor growth rate in BC11 patient-derived xenograft treated by DPT-C9h
Protocol: as §1, §2, §3

BC256 breast cancer PDX = assay: Tumor growth rate in BC256 patient-derived xenograft treated by DPT-C9h
Protocol: as §1, §2, §3

[1] = TGR of treated group / TGR of control group
[2] = TGR=Vf/V1, 5 mg/kg/d IP, 5 days weekly, 4 to 6 weeks, end of therapy
[3] = responder if ratio ≤0.5 (p<0.05), resistant if ratio ≥0.8

VKKKKIKREIKI-YVETLDGIFEQWAHSEDL (VKKKKIKREIKIYVETLDGIFEQWAHSEDL; chimeric peptide) [DPT-C9h]
Ratio TGR (BC52 breast cancer PDX; [1]): 0.38 | Mean TGR DPT (BC52 breast cancer PDX; [2]): 15.3 | conclusion (responder / resistant) (BC52 breast cancer PDX; class from ratio TGR): + (+: responder) | model response to DPT-C9h (in words) (BC52 breast cancer PDX; [3]): responder | Ratio TGR (BC227 breast cancer PDX; [1]): 1.38 | Mean TGR DPT (BC227 breast cancer PDX; [2]): 6.0 | conclusion (responder / resistant) (BC227 breast cancer PDX; class from ratio TGR): − (−: resistant) | model response to DPT-C9h (in words) (BC227 breast cancer PDX; [3]): resistant | Ratio TGR (OVM33 ovarian cancer PDX; [1]): 0.65 | Mean TGR DPT (OVM33 ovarian cancer PDX; [2]): 35.0 | conclusion (responder / resistant) (OVM33 ovarian cancer PDX; class from ratio TGR): ND (ND: unidentified) | model response to DPT-C9h (in words) (OVM33 ovarian cancer PDX; [3]): undefined | Ratio TGR (BC143 breast cancer PDX; [1]): 0.68 | Mean TGR DPT (BC143 breast cancer PDX; [2]): 27.7 | conclusion (responder / resistant) (BC143 breast cancer PDX; class from ratio TGR): ND (ND: unidentified) | model response to DPT-C9h (in words) (BC143 breast cancer PDX; [3]): undefined | Ratio TGR (BC173 breast cancer PDX; [1]): 0.45 | Mean TGR DPT (BC173 breast cancer PDX; [2]): 6.0 | conclusion (responder / resistant) (BC173 breast cancer PDX; class from ratio TGR): + (+: responder) | model response to DPT-C9h (in words) (BC173 breast cancer PDX; [3]): responder | Ratio TGR (BC146 breast cancer PDX; [1]): 0.96 | Mean TGR DPT (BC146 breast cancer PDX; [2]): 34.7 | conclusion (responder / resistant) (BC146 breast cancer PDX; class from ratio TGR): − (−: resistant) | model response to DPT-C9h (in words) (BC146 breast cancer PDX; [3]): resistant | Ratio TGR (OV14 ovarian cancer PDX; [1]): 0.44 | Mean TGR DPT (OV14 ovarian cancer PDX; [2]): 10.7 | conclusion (responder / resistant) (OV14 ovarian cancer PDX; class from ratio TGR): + (+: responder) | model response to DPT-C9h (in words) (OV14 ovarian cancer PDX; [3]): responder | Ratio TGR (BC11 breast cancer PDX; [1]): 0.90 | Mean TGR DPT (BC11 breast cancer PDX; [2]): 24.3 | conclusion (responder / resistant) (BC11 breast cancer PDX; class from ratio TGR): − (−: resistant) | model response to DPT-C9h (in words) (BC11 breast cancer PDX; [3]): resistant | Ratio TGR (BC256 breast cancer PDX; [1]): 1.23 | Mean TGR DPT (BC256 breast cancer PDX; [2]): 38.7 | conclusion (responder / resistant) (BC256 breast cancer PDX; class from ratio TGR): − (−: resistant) | model response to DPT-C9h (in words) (BC256 breast cancer PDX; [3]): resistant
